# Results reported in publication PMC12463534, “Exploring the Anticancer Properties of 4-Phenylthiazole-Based Ru(II) and Os(II) Metallacycles Featuring 1-Methylimidazole as N-Donor Functionality” (Bioinorganic Chemistry and Applications, 2025).
# Like-named read-outs stand apart in the source and are kept apart here.
# How the values were obtained:
# Balb/c mice = assay: Toxicity experiments in Balb/c mice (MTD); settings: for Toxicity in mice: i.p. 50 mg/kg, three consecutive days, 10% DMSO in 0.9% NaCl; for MTD fold lower compared to 1c and 3c: mice
# Method: Finally, we were interested in the anticancer activity of selected complexes of our panel in an in vivo mouse setting. Before injecting the compounds in tumor-bearing mice, toxicity experiments were performed. […] On the last day of therapy, most animals were sacrificed and tissues as well as tumors collected. Only four mice (per group) were kept to get information on the impact of the drugs on the overall survival.
# [1] = tested on: A549 lung adenocarcinoma cells; design: method as in PMID 38426897; settings: MTT assay, exposure time 96 h; ref [5]; read-out: 50% inhibitory concentration A549 (chlorido complexes, reference) (converted); cited from earlier work
# [2] = tested on: G4 forming sequences (h-Telo, bcl2, hTERT, Kit1, Kit2) and dsDNA; design: method as in PMID 38426897; settings: recent work; ref [5]; cited from earlier work
# SW480 cells = assay: DCFH-DA assay, cellular ROS levels; format: cell-based, human; settings: 2 h, concentration dependent
# Method: For this approach, SW480 cells were subjected to the 2′,7′-dichlorofluorescin-diacetate (DCFH-DA) assay.
# SW480 colon adenocarcinoma cells were trypsinized for 5 min in a humidified incubator at 37°C and under a 5% CO2 atmosphere. Supplemented MEM was added to stop trypsinization, and cells were centrifuged for 3 min at 1200 rpm (Heraeus Megafuge 1.0R). After cell counting, SW480 cells were seeded in 100-μL aliquots in densities of 2.5 × 10^4 cells/well into 96-well clear flat-bottom microplates (CytoOne, TC-treated, from Starlab). After incubation for 24 h, cells were washed with 200 μL of Hanks' balanced salt solution (HBSS; Sigma-Aldrich; supplemented with 1% heat-inactivated FCS). […] After washing cells with 200 μL of supplemented HBSS, serially diluted test compounds in phenol-red-free Opti-MEM (Gibco), supplemented with 1% heat-inactivated FCS, were added in 200-μl triplicates and tert-butyl hydroperoxide (TBHP) was applied as positive control. […] Blank-corrected values were calculated relative to negative controls (treated with drug-free supplemented Opti-MEM) from three independent experiments.
# [3] = tested on: HCT116 multicellular tumor spheroids (3D); assay: Resazurin assay, HCT116 3D multicellular tumor spheroids; settings: read-out: IC50 3D; HCT116 3D spheroids, resazurin assay, 96 h exposure
# Method: (§2) Both models were investigated by the fluorimetric resazurin assay after 96-h exposure.
# (§3) HCT116 colorectal carcinoma cells (RRID:CVCL_0291 from ATCC) were cultivated in McCoy's 5A medium, supplemented with 10% heat-inactivated fetal bovine serum and 4 mM L-glutamine.
# (§4) For 2D experiments, HCT116 cells were harvested from culture flasks by trypsinization, seeded in 100-μL aliquots into 96-well microculture plates (CytoOne, TC-treated, from Starlab) in densities of 2 × 10^3 cells per well, and incubated for 24 h prior to exposure to the test compounds. […] Stock solutions of test compounds were prepared in DMF, which were then diluted in McCoy's 5A-supplemented medium (not to exceed a final content of 0.5% v/v of organic solvent in the test plates), and serial dilutions were added in aliquots of 100 μL per well. […] After incubation for 4 h, fluorescence was measured with a microplate reader (Bio-Tek, SynergyHT) at a wavelength of 530 nm, additionally using a reference wavelength of 620 nm.
# [4] = tested on: CH1/PA-1 ovarian teratocarcinoma cells; design: method as in PMID 38426897; settings: MTT assay, exposure time 96 h; ref [5]; read-out: 50% inhibitory concentration CH1 (chlorido complexes, reference) (converted); cited from earlier work
# [5] = tested on: SW480 colon adenocarcinoma cells; design: method as in PMID 38426897; settings: MTT assay, exposure time 96 h; ref [5]; read-out: 50% inhibitory concentration SW480 (chlorido complexes, reference) (converted); cited from earlier work
# [6] = tested on: HCT116 colorectal cancer cell line (2D); assay: Resazurin assay, HCT116 2D (monolayer) culture; settings: read-out: IC50 2D, resazurin assay, 96 h exposure
# Method: as §2, §3, §4
# [7] = tested on: G4 forming sequences (h-Telo, bcl2, hTERT, Kit1, Kit2) and dsDNA; assay: FRET melting assay, G-quadruplex / B-DNA interaction; format: binding, human; settings: 60 mM potassium cacodylate pH 7.4, 2 h incubation
# Method: G4s are DNA secondary motifs that play crucial roles in cancer development. […] The complexes were incubated with different G4 forming sequences: one derived from human telomere-forming (h-Telo) and four corresponding to promoter regions of oncogenes, namely, bcl2, hTERT, Kit1, and Kit2. For comparison, a self-complementary sequence called dsDNA was used to represent B-DNA (Table S2).
# FRET experiments were conducted using an Applied Biosystems QuantStudio 6 PCR cycler in a 96-well format equipped with a FAM (6-carboxyfluorescein) filter. Oligonucleotide stock solutions, labelled with FAM and TAMRA (6-carboxytetramethylrhodamine) probes, were diluted to the desired concentration in a 60-mM potassium cacodylate buffer (pH 7.4). To fold the oligonucleotides into their B-DNA or G4 topologies, the solutions were heated to 95°C for 5 min and then allowed to cool slowly to room temperature overnight. The final concentration of the oligonucleotides was 0.2 μM, with a total volume of 30 μL in each well. Metal complexes were dissolved in DMF to prepare 2 mM stock solutions and further diluted with the buffer, where DMF concentration never exceeded 0.05%. Mixtures of oligonucleotides and metal compounds were left at room temperature for 2 h. Data were collected twice, each time in duplicate, over a temperature range of 25°C–95°C, with a ramp of 1°C every 30 s. FAM emission data were normalized from 0 to 1 to compare different datasets. After data normalization, we extrapolated the T1/2 values, i.e., the temperature at which normalized FAM emission is 0.5. The DNA concentration is expressed in strands.
# [8] = tested on: A549 lung adenocarcinoma cells; assay: MTT assay, inhibition of cancer cell growth, A549; settings: read-out: 50% inhibitory concentration A549, exposure time 96 h
# Method: (§5) CH1/PA-1 ovarian teratocarcinoma cells (CH1, RRID: CVCL_4992, provided by L. R. Kelland, CRC Center for Cancer Therapeutics, Institute of Cancer Research, Sutton, UK; confirmed by STR profiling as PA-1 ovarian teratocarcinoma cells at Multiplexion, Heidelberg, Germany), SW480 colon adenocarcinoma (RRID: CVCL_0546), and A549 lung adenocarcinoma cells (NCI-H2618, RRID: CVCL_A549; both cell lines were obtained from the American Type Culture Collection (ATCC), Manassas, VA, USA) were grown as adherent cultures in 75-cm^2 culture flasks (Starlab, Hamburg, Germany) by using minimal essential medium (MEM) supplemented with 1 mM sodium pyruvate, 4 mM L-glutamine, 1% (v/v) nonessential amino acids from 100-fold stock (all purchased from Sigma-Aldrich), and 10% heat-inactivated fetal bovine serum (Serana, Pessin, Germany).
# (§6) The 3-(4,5-dimethylthiazol-2-yl)-2,5-diphenyl-2H tetrazolium bromide (MTT, Acros Organics, Geel, Belgium) assay was used to detect the cytotoxicity of the compounds after 96-h incubation. For this purpose, cells were harvested from culture flasks by trypsinization, seeded in 100-μL aliquots into 96-well microculture plates (Starlab, UK) in densities of 1 × 10^3 (CH1/PA-1), 2 × 10^3 (SW480), and 3 × 10^3 (A549) cells per well and incubated for 24 h prior to exposure to the test compounds. Stock solutions of test compounds were prepared in DMF, which were then diluted in MEM (not to exceed a final content of 0.5% v/v of organic solvent in the test plates), and serial dilutions were added in aliquots of 100 μL per well. […] After incubation for 4 h, the medium/MTT mixtures were removed, and the produced formazan crystals were dissolved in 150 μL DMSO per well. Optical densities at 550 nm were measured spectrophotometrically with a ELx808 Absorbance Microplate Reader (Bio-Tek, Winooski, VT, USA) by using a reference wavelength of 690 nm to correct for unspecific absorption.
# Solubility in 1% DMF/PBS = assay: Solubility in 1% DMF/PBS
# Source text: Solubility is an important factor for the application of metallodrugs. DMF was used as solubilizer to allow comparison to the respective chlorido complexes where the usage of DMSO would lead to stable DMSO adducts.
# (§1) As the coordinated p-cym and leaving groups are present in all synthesized complexes, we focused on the differently substituted 4-phenylthiazoles for estimated changes in lipophilicity.
# SW480 cancer cells = assay: Cellular accumulation (ICP-MS) in SW480 cells; settings: 50 μM, 0.5% DMF in MEM, SW480, exposure time 2 h
# Method: as §1
# Cellular accumulation of the compounds was studied based on a method described previously with modifications. 1.8 × 10^5 SW480 cells per well were seeded in aliquots of 1 mL of complete MEM (see above) into 12-well plates (CytoOne, tissue culture treated, Starlab) and incubated at 37°C for 24 h. Then, cells were exposed for 2 h at 37°C to 50 μM solutions of the test compounds (containing 0.5% DMF) in fresh 0.5 mL of complete MEM upon exchange of the medium. Afterward, cells were washed three times with 1 mL PBS per well, lysed with 0.4 mL sub-boiled HNO3 per well for 1 h at room temperature, and 0.3 mL of each sample was diluted with 7.7 mL Milli-Q water. Adsorption/desorption controls were prepared in the same manner in cell-free wells. Ruthenium content was quantified by ICP-MS using an ICP-quadrupole MS Agilent 7800 instrument (Agilent Technologies, Waldbronn, Germany) as described previously.
# [9] = tested on: CH1/PA-1 ovarian teratocarcinoma cells; assay: MTT assay, inhibition of cancer cell growth, CH1/PA-1; settings: read-out: 50% inhibitory concentration CH1, exposure time 96 h
# Method: as §5, §6
# [10] = Stability and reactivity in aqueous solution (1H-NMR, UV-vis)
# Method: The exact concentration of the metal complex stock solutions was calculated on weight-in-volume basis. Complexes were dissolved in water in 1–5 mM concentration.
# The path length was 1 cm.
# ^1H-NMR spectroscopic studies were carried out on a Bruker FT-NMR spectrometer AV NEO 500.10 MHz and a Bruker Avance III HD Ascend 500 Plus instrument. All ^1H-NMR spectra were recorded using a standard Bruker noesygppr1d pulse sequence to suppress water resonance. […] Samples contained 10% (v/v) D2O with a complex concentration of ca. 1 mM. Samples were prepared in pH 1.3 aqueous HCl solution or in pH 7.4 PBS.
# [11] = tested on: SW480 colon adenocarcinoma cells; assay: MTT assay, inhibition of cancer cell growth, SW480; settings: read-out: 50% inhibitory concentration SW480, exposure time 96 h
# Method: as §5, §6
SMILES,"Maximal tolerable dose (MTD) for repeated applications (Balb/c mice; Balb/c mice, i.p.)",Toxicity in mice (Balb/c mice; Balb/c mice),MTD fold lower compared to 1c and 3c (Balb/c mice),IC50 [1],Stabilization of DNA G-quadruplex structures [2],Effect on intracellular ROS levels (SW480 cells),IC50 [3],IC50 [4],IC50 [5],IC50 [6],Stabilization of oligonucleotides (G4s or B-DNA) [7],IC50 [8],Solubility (Solubility in 1% DMF/PBS),"Cellular accumulation, fg Ru/cell (SW480 cancer cells)",IC50 [9],"Sensitivity to chloride: replacement of coordinated MeIm ([10]; 3 M KCl, pH 7.4, UV-vis)","Decomposition at pH 7.4 ([10]; PBS pH 7.4, 1 mM complex, 25°C, within 6 days, 1H-NMR)","Behaviour in acidic solution ([10]; pH = 1.0 or 1.3 (HCl), followed in time up to 6 days, 1H-NMR/UV-vis)","Spectral change at pH 10.0 ([10]; pH = 10.0 (NaOH), within 2 days, UV-vis)",IC50 [11]
Cc1ccc(C(C)C)cc1.[Cl][Ru][c]1ccccc1-c1cscn1 [Compound 1a],5 mg/kg,highly toxic,10 fold,24 µM,stabilize DNA G-quadruplex (G4) structures,constantly decrease ROS levels with increasing concentrations,31 ± 5 µM,3 µM,9.5 µM,18 ± 5 µM,–,–,–,–,–,–,–,–,–,–
Cc1ccc(-c2cscn2)[c]([Ru][Cl])c1.Cc1ccc(C(C)C)cc1 [Compound 1d],–,–,–,34 µM,stabilize DNA G-quadruplex (G4) structures,–,–,14 µM,19 µM,–,–,–,–,–,–,–,–,–,–,–
"Cc1ccc(C(C)C)cc1.Cn1cc[n+]([Ru-]2[c]3ccccc3-c3csc[n+]32)c1.O=[N+]([O-])[O-] [Compound 3a, [((3-κN)-1-Methylimidazole)(4-phenylthiazolato-κN,κC2′)(η^6-p-cymene)ruthenium(II)] Nitrate]",–,highly toxic,10 fold,–,–,constantly decrease ROS levels with increasing concentrations,10.6 ± 0.9 µM,–,–,8.4 ± 0.7 µM,No stabilization,11 ± 1 µM,9.08 mM,387 ± 16 fg Ru/cell,1.9 ± 0.1 µM,could not replace coordinated MeIm,no decomposition,decomposition,no spectral change,5.4 ± 1.1 µM
